These results are taken from patent publication US20250066356A1, “LRRK2 INHIBITORS” (INTERLINE THERAPEUTICS, INC., priority 2022, published 2025).

One assay has as its target LRRK2 wild type enzyme (Homo sapiens, UniProt Q5S007). Nature of the assay: LRRK2 biochemical assay (LanthaScreen TR-FRET, LRRKtide substrate). The note with it: LRRK2 inhibition; 3 nM LRRK2, 400 nM LRRKtide, 25 μM ATP, 120 min, 23° C. As to the method:
10 mM compound solution was prepared in DMSO. An 11-point, 3-fold dilution was performed, with highest concentration at 10 μM. A 10 mM compound DMSO solution was added to Labcyte LDV plate and the compound concentration of source plate was 10 mM. The 1 st compound concentration of Inter plate (Labcyte 384 well PP plate) was 4.938×10^−1 mM which was prepared by transferring 1.5 μL of 10 mM compound from source plate to 28.9 μL DMSO. The 2nd compound concentration of Inter plate was 1.829×10^−2 mM which was prepared by transferring 60 nL of 10 mM compound from source plate to 32.7 μL DMSO. The 3rd compound concentration of Inter plate was 6.774×10^−4 mM which was prepared by transferring 2.5 nL of 10 mM compound from source plate to 36.9 μL DMSO. 100 nL of reference compound was dispensed in column 1 for low control wells and 100 nL of DMSO in column 24 for high control wells. Compounds were dispensed to column 2 to 23 of assay plate and backfilled with DMSO to a total volume of 100 nL.
A 2×LRRK2 enzyme solution (final concentration 3 nM) was prepared in assay buffer (Tris-HCl pH8.0: 50 mM, MgCl2: 5 mM, EDTA: 1 mM, Brij-35: 0.01%, 2 mM DTT). A 2× substrate solution was prepared: LRRK2 tide substrate (final concentration 400 nM) and ATP (final concentration 25 μM) in assay buffer. 5 μL 2×LRRK2 enzyme solution was dispensed to each well in assay plate by Multidrop. Assay plate was spun at 1,000 rpm for 1 min and incubated for 15 min at 23° C. 5 μL 2×ATP/LRRKtide solution was dispensed to each well in assay plate by Multidrop. Assay plate was spun at 1,000 rpm for 1 min and incubated for 120 min at 23° C.
A 2× detection solution was prepared: Tb-pERM (pLRRKtide) antibody (final concentration 0.25 nM) and EDTA (final concentration 10 mM) in TR-FRET dilution buffer. 10 μL 2× detection solution was dispensed to each well in assay plate to stop kinase reaction by Multidrop. Assay plate was spun at 1,000 rpm for 1 min and incubate for 30 min at 23° C. Assay plate was then read on Envision configured for LanthaScreen® TR-FRET.
(In general: In TR-FRET formats the signal depends on donor and acceptor labels being close together.)

Assay [1] deals with T1, phosphorylation at Ser935 on wild type LRRK2 overexpressed in recombinant HEK-293T cells (Homo sapiens, UniProt Q5S007).
T1 construct: host or cells: HEK293T, transient transfection
Nature of the assay: pS935 LRRK2 Cell Assay (HTRF). The class given is cell-based. The note with it: LRRK2 inhibition; pS935 LRRK2 in transfected HEK293T cells, 2 hours compound incubation. From the text:
The following protocol describes an in-vitro method for measuring phosphorylation at Ser935 on wild type LRRK2 overexpressed in recombinant HEK-293T cells. The method is based on HTRF technology, which combines Fluorescence Resonance Energy Transfer (FRET) with Time-Resolved measurement (TR). Phospho-LRRK2 (Ser935) is detected in a sandwich assay format using two different specific antibodies, one labelled with Eu^3+-Cryptate (donor) and the second with d2 (acceptor). When the fluorophores are in close proximity, excitation of the donor with a light source (flash lamp) stimulates FRET to the acceptor, which in turn fluoresces at a specific wavelength (665 nm). The fluorescence emission at 615 nm from the donor is also measured to allow ratiometric reduction of data. The specific signal is proportional to phospho-LRRK2 (Ser935).
Plasmid transient transfection: DMEM medium, FBS, DPBS, Trans-IT, OPTI-MEM reagents were allowed to warm to room temperature. HEK293T cells were cultured in DMEM+10% FBS complete medium in T150 flasks till around 80% confluency before transfection. Then cells were washed with 10 mL PBS and detached with 3 mL 0.25% typinsin. 30×10E6 HEK293T cells were seeded in DMEM+10% FBS complete medium to a 15 cm dish.
DNA, TransIT-LT1, OPTI-MEM complex were prepared: […] OPTI-MEM was added to a 15 mL cone tube, then […] plasmid was added to OPTI-MEM and mixed, followed by addition of 60 L TransIT-LT1 to the plasmid OPTI-MEM mixture and mixing. The resulting mixture was incubated for 15 minutes.
The above plasmid, DNA and OPTI-MEM mixture was added dropwise to the 15 cm dish, ensuring the drops were evenly distributed. The culture dish was gently rocked back and forth and from left to right to evenly distribute the complex. The transfected dish was incubated for 24 hours at 37° C., and 5% CO2.
Transfected HEK293T was collected in the 15 cm dish. Media was aspirated from tissue culture dish, and washed by dispensing 10 mL 1×DPBS into 15 cm dish. 1×DPBS was aspirated and 3 mL trypsin was dispensed to 15 cm dish. The dish was incubated with trypsin at room temperature for 3 min until the cells were detached. 10 mL of DMEM+10% FBS medium were added to 15 cm dish and triturated to ensure homogenous cell suspensions.
Homogenous cell suspensions were transferred to a 50 mL tube, and centrifuged for 5 minutes at 1,000 rmp/min. The supernatant was aspirated and resuspended with 20 mL complete medium. 1 mL of cell suspension was transferred for cell counting. The cell suspension was diluted to 2×10E5 cells/ml. 50 L cell suspensions were added to a 384-well plate. The plate was quick spun at 800 rpm for 1 minute, then incubate overnight at 37° C., 5% CO2.
Compound dispensing: compound was diluted (10 mM DMSO stock solution) and added to assay plate (top concentration: 10 μM, 3 fold serial dilution, 9 doses) with duplicates by Tecan liquid handler. The DMSO concentration of each well was normalized to 0.2%. Plates were quick spun at 1,000 rpm for 1 minute. Plates were incubated at 37° C., 5% CO2 for 2 hours.
1× lysis buffer solution supplemented with blocking reagent was prepared (e.g. 1 mL lysis buffer 4×+3 mL water+40 L stock blocking reagent 100×). Antibodies working solution was prepared by diluting 40-fold d2 and Cryptate antibodies with detection buffer (e.g. 1520 L detection buffer+40 L d2-antibody stock solution+[…] Cryptate-antibody stock solution).
After 2 hours incubation, cell plates were taken out from the incubator. Medium was removed by plate washer, then 16 µL of supplemented lysis buffer was added 1× to each well and incubated for 30 minutes at room temperature under shaking (800 rpm/min). 4 µL of antibodies working solution was added to each well, covered with a top seal and incubated overnight in 23° C. incubator.
HTRF signal was read (665 nm and 615 nm) on Wallac 2104 EnVision® multilabel reader. Data were analyzed by XL fit software.

T1 sequence (Q5S007 whole entry): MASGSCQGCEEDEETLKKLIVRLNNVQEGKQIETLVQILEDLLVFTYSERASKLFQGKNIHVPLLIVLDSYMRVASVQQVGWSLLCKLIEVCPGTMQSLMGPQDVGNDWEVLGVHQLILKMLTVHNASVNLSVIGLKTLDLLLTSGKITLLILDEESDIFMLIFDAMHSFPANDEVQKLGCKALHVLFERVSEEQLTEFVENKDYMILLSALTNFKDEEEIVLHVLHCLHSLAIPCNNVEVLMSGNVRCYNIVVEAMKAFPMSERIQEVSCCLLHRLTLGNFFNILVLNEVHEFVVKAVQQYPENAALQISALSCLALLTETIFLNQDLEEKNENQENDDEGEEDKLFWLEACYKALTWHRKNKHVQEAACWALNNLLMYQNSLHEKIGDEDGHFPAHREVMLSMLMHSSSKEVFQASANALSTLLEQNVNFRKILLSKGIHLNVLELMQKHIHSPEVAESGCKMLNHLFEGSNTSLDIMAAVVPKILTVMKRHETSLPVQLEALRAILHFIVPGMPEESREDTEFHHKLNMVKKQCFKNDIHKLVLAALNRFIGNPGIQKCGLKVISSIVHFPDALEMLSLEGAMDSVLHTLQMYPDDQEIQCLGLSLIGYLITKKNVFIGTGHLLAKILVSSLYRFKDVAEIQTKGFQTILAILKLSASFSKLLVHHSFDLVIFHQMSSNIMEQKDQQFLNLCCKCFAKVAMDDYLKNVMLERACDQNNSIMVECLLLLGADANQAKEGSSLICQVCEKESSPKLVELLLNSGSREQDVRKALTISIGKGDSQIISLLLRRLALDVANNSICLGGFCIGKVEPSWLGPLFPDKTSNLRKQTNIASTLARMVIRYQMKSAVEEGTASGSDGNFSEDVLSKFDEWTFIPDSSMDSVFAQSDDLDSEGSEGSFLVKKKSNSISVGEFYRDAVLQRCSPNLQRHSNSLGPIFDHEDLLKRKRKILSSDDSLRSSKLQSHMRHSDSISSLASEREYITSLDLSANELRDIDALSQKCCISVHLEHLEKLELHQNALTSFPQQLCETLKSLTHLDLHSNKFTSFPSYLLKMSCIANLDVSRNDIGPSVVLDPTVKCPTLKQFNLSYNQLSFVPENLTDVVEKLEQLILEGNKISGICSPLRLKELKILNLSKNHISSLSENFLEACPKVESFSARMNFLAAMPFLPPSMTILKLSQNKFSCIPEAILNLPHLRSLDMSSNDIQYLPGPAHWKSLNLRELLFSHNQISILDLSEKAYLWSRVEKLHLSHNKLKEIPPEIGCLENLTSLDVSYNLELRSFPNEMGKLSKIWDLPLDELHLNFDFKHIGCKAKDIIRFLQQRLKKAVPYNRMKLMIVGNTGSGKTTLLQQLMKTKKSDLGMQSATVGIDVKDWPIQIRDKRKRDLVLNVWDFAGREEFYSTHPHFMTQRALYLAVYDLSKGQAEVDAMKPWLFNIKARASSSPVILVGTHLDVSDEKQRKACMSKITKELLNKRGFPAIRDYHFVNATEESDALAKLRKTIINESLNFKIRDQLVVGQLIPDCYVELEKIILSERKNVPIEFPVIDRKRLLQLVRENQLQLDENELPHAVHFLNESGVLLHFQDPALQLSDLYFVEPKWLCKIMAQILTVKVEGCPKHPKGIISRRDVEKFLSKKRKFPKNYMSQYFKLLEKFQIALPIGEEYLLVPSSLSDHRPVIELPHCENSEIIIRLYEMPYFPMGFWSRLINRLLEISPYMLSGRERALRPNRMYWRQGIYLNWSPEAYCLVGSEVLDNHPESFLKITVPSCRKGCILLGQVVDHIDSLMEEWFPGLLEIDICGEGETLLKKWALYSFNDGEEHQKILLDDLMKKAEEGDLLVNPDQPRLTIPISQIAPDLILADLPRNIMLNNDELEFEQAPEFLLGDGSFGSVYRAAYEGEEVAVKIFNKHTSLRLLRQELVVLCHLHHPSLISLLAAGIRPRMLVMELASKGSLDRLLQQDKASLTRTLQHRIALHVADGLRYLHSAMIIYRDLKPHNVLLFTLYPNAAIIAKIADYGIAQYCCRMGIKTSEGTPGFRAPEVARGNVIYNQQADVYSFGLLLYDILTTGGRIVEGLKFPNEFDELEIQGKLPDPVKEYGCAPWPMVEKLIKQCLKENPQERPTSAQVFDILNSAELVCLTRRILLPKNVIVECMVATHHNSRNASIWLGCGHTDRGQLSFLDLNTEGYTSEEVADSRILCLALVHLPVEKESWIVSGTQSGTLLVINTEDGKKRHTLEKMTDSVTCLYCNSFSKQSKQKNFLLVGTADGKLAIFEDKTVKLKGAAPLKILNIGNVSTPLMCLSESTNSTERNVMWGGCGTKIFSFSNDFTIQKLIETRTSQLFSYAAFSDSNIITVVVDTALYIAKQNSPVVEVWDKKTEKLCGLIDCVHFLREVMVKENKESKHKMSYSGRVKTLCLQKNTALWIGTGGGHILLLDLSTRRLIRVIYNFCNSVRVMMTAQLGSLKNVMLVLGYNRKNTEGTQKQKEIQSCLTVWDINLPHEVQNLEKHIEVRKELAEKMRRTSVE
Sequence of LRRK2 wild type enzyme (Q5S007 whole entry): as above

As usually defined, the IC50 is the concentration needed to halve the response being measured. Consider `C[C@@H]1C[C@H](n2c(Cc3noc(=O)[nH]3)nc3cnc4ccc(C#N)cc4c32)CCO1` [Compound 14, 1-[(2R,4R)-2-methyloxan-4-yl]-2-[(5-oxo-4,5-dihydro-1,2,4-oxadiazol-3-yl)methyl]-1H-imidazo[4,5-c]quinoline-8-carbonitrile], for which the results for the IC50 (against LRRK2 wild type enzyme; in assay [1]) were 7.84 nM and above 10000 nM, respectively.
In the same order, the values of `C[C@@H]1C[C@H](n2c(Cc3noc(N4CCC(O)CC4)n3)nc3cnc4ccc(C#N)cc4c32)CCO1` [Compound 11, 2-{[5-(4-hydroxypiperidin-1-yl)-1,2,4-oxadiazol-3-yl]methyl}-1-[(2R,4R)-2-methyloxan-4-yl]-1H-imidazo[4,5-c]quinoline-8-carbonitrile] are 2.26 nM and 270 nM.
The matching figures for `C[C@@H]1C[C@H](n2c(Cn3ccc(=O)c(C(=O)O)c3)nc3cnc4ccc(C#N)cc4c32)CCO1` [Compound 17, 1-({8-cyano-1-[(2R,4R)-2-methyloxan-4-yl]-1H-imidazo[4,5-c]quinolin-2-yl}methyl)-4-oxo-1,4-dihydropyridine-3-carboxylic acid]: 2.88 nM and 2950 nM.
In the same order, the values of `C[C@@H]1C[C@H](n2c(Cc3noc(=O)[nH]3)nc3cnc4ccc(Cl)cc4c32)CCO1` [Compound 15, 3-({8-chloro-1-[(2R,4R)-2-methyloxan-4-yl]-1H-imidazo[4,5-c]quinolin-2-yl}methyl)-4,5-dihydro-1,2,4-oxadiazol-5-one] are 3.23 nM and above 10000 nM.
With `C[C@@H]1C[C@H](n2c(Cc3ccc(NS(C)(=O)=O)nc3)nc3cnc4ccc(C#N)cc4c32)CCO1` [Compound 6, N-(5-{[8-cyano-1-(2-methyloxan-4-yl)-1H-imidazo[4,5-c]quinolin-2-yl]methyl}pyridin-2-yl)methanesulfonamide], the IC50 against LRRK2 wild type enzyme worked out at 3.94 nM; in assay [1], 4380 nM.
For `C[C@@H]1C[C@H](n2c(Cc3noc(N4CC(O)C4)n3)nc3cnc4ccc(C#N)cc4c32)CCO1` [Compound 1, 2-{[5-(3-hydroxyazetidin-1-yl)-1,2,4-oxadiazol-3-yl]methyl}-1-[(2R,4R)-2-methyloxan-4-yl]-1H-imidazo[4,5-c]quinoline-8-carbonitrile], the IC50 at LRRK2 wild type enzyme was determined as 0.976 nM; in assay [1], 664 nM.
In the case of `C[C@@H]1C[C@H](n2c(Cc3noc(N4CC(O)C4)n3)nc3cnc4ccc(Cl)cc4c32)CCO1` [Compound 3, 1-[3-({8-chloro-1-[(2R,4R)-2-methyloxan-4-yl]-1H-imidazo[4,5-c]quinolin-2-yl}methyl)-1,2,4-oxadiazol-5-yl]azetidin-3-ol], the IC50 stood at 0.798 nM on LRRK2 wild type enzyme and 61.5 nM in assay [1].
